{"source": "patent US20190116791A1", "about": "“USE OF SAFENERS WITH PPO INHIBITOR HERBICIDES” (priority 2016, published 2019)", "key": {"[1]": {"system": "wheat variety “Jagger”", "experiment": "Percent wheat injury, visual rating 0-100%, greenhouse, post-emergence spray", "settings": "for Percent wheat injury, JAGGER 3 DAT / Percent wheat injury, JAGGER 7 DAT / Percent wheat injury, JAGGER 14 DAT: Table 7 Test 1, tank-mix; for Injury / Percent injury on wheat, Jagger 3 DAT / Percent injury on wheat, Jagger 7 DAT / Percent injury on wheat, Jagger 14 DAT: Table 4; for Injury: Jagger, time not stated"}, "[2]": {"system": "wheat specie “Yellowstone”", "experiment": "Percent wheat injury, visual rating 0-100%, greenhouse, post-emergence spray", "settings": "for Percent wheat injury, YELLOWSTONE (1) 3 DAT / Percent wheat injury, YELLOWSTONE (1) 7 DAT / Percent wheat injury, YELLOWSTONE (1) 14 DAT: Table 7 Test 1; for Percent wheat injury, YELLOWSTONE (1) 3 DAT / Percent wheat injury, YELLOWSTONE (1) 7 DAT / Percent wheat injury, YELLOWSTONE (1) 14 DAT / Percent wheat injury, YELLOWSTONE (2) 3 DAT / Percent wheat injury, YELLOWSTONE (2) 7 DAT / Percent wheat injury, YELLOWSTONE (2) 14 DAT: tank-mix; for Percent wheat injury, YELLOWSTONE (2) 3 DAT / Percent wheat injury, YELLOWSTONE (2) 7 DAT / Percent wheat injury, YELLOWSTONE (2) 14 DAT: Table 7 Test 2; for Percent wheat injury 3 DAT / Percent wheat injury 7 DAT / Percent wheat injury 14 DAT / Injury: Yellowstone; for Injury / Percent injury on wheat, Yellowstone 3 DAT / Percent injury on wheat, Yellowstone 7 DAT / Percent injury on wheat, Yellowstone 14 DAT: Table 4; for Injury: time not stated"}, "[3]": {"system": "Morningglory", "experiment": "Percent weed control, 0 to 100% rating system", "type": "in vivo", "settings": "Table 6", "experimental": "(§1) Percent weed control was determined by a method similar to the 0 to 100% rating system as described above and reproduced below for easy reference. The same weed control rating system also can be found such as in “Research Methods in Weed Science,” 2nd ed., B. Truelove, Ed.; Southern Weed Science Society; Auburn University, Auburn, Ala., 1977."}, "[4]": {"system": "Velvetleaf", "experiment": "Percent weed control, 0 to 100% rating system", "type": "in vivo", "settings": "Table 6", "experimental": "as §1"}, "[5]": {"settings": "fluthiacet-methyl 5.6 g ai/ha, 3 DAT"}, "[6]": {"settings": "fluthiacet-methyl 11.2 g ai/ha, 3 DAT"}, "[7]": {"settings": "carfentrazone-ethyl at 50 g, safened treatment as tank-mix or premix"}, "[8]": {"settings": "Table 2, carfentrazone-ethyl 25 g ai/ha"}, "[9]": {"settings": "Table 3, carfentrazone-ethyl 50 g ai/ha"}}, "note": "“And” between values parts separate entries of the source, which are not always exact repeats. Identical values can stand only once.", "data": [{"smiles": "COC(=O)CSc1cc(/N=c2\\sc(=O)n3n2CCCC3)c(F)cc1Cl", "note": "[F-M, fluthiacet-methyl]", "values": [{"measurement": "Percent wheat injury, JAGGER 3 DAT", "setting": "[1]; fluthiacet-methyl 5.6 g ai/ha", "result": 6, "unit": "%"}, {"measurement": "Percent wheat injury, JAGGER 7 DAT", "setting": "[1]; fluthiacet-methyl 5.6 g ai/ha", "result": 8, "unit": "%"}, {"measurement": "Percent wheat injury, JAGGER 14 DAT", "setting": "[1]; fluthiacet-methyl 5.6 g ai/ha", "result": 10, "unit": "%"}, {"measurement": "Percent wheat injury, JAGGER 3 DAT", "setting": "[1]; fluthiacet-methyl 11.2 g ai/ha", "result": 35, "unit": "%"}, {"measurement": "Percent wheat injury, JAGGER 7 DAT", "setting": "[1]; fluthiacet-methyl 11.2 g ai/ha", "result": 35, "unit": "%"}, {"measurement": "Percent wheat injury, JAGGER 14 DAT", "setting": "[1]; fluthiacet-methyl 11.2 g ai/ha", "result": 19, "unit": "%"}, {"measurement": "Percent wheat injury, YELLOWSTONE (1) 3 DAT", "setting": "[2]; [5]", "result": 12, "unit": "%"}, {"measurement": "Percent wheat injury, YELLOWSTONE (1) 7 DAT", "setting": "[2]; fluthiacet-methyl 5.6 g ai/ha", "result": 12, "unit": "%"}, {"measurement": "Percent wheat injury, YELLOWSTONE (1) 14 DAT", "setting": "[2]; fluthiacet-methyl 5.6 g ai/ha", "result": 12, "unit": "%"}, {"measurement": "Percent wheat injury, YELLOWSTONE (1) 3 DAT", "setting": "[2]; [6]", "result": 36, "unit": "%"}, {"measurement": "Percent wheat injury, YELLOWSTONE (1) 7 DAT", "setting": "[2]; fluthiacet-methyl 11.2 g ai/ha", "result": 34, "unit": "%"}, {"measurement": "Percent wheat injury, YELLOWSTONE (1) 14 DAT", "setting": "[2]; fluthiacet-methyl 11.2 g ai/ha", "result": 34, "unit": "%"}, {"measurement": "Percent wheat injury, YELLOWSTONE (2) 3 DAT", "setting": "[2]; [5]", "result": 16, "unit": "%"}, {"measurement": "Percent wheat injury, YELLOWSTONE (2) 7 DAT", "setting": "[2]; fluthiacet-methyl 5.6 g ai/ha", "result": 11, "unit": "%"}, {"measurement": "Percent wheat injury, YELLOWSTONE (2) 14 DAT", "setting": "[2]; fluthiacet-methyl 5.6 g ai/ha", "result": 12, "unit": "%"}, {"measurement": "Percent wheat injury, YELLOWSTONE (2) 3 DAT", "setting": "[2]; [6]", "result": 40, "unit": "%"}, {"measurement": "Percent wheat injury, YELLOWSTONE (2) 7 DAT", "setting": "[2]; fluthiacet-methyl 11.2 g ai/ha", "result": 36, "unit": "%"}, {"measurement": "Percent wheat injury, YELLOWSTONE (2) 14 DAT", "setting": "[2]; fluthiacet-methyl 11.2 g ai/ha", "result": 25, "unit": "%"}]}, {"smiles": "O=C1OC(=O)c2cccc3cccc1c23", "note": "[naphthalic anhydride]", "values": [{"measurement": "wheat injury in the presence of safener(s)", "setting": "[2]; text on Tables 2 and 3, safener applied with carfentrazone-ethyl, regardless of rate (25 or 50 g), 3 DAT", "result": "greater than 25%"}]}, {"smiles": "CCOC(=O)C(Cl)Cc1cc(-n2nc(C)n(C(F)F)c2=O)c(F)cc1Cl", "note": "(centres unmarked) [Carfentrazone-ethyl, carfentrazone-ethyl]", "values": [{"measurement": "Injury", "setting": "[1]; carfentrazone-ethyl at 25 g", "result": "> 35", "unit": "%"}, {"measurement": "Injury", "setting": "[1]; [7]", "result": "> 40", "unit": "%"}, {"measurement": "Percent injury on wheat, Jagger 3 DAT", "setting": "[1]; carfentrazone-ethyl 25 g ai/ha", "result": 36, "unit": "%"}, {"measurement": "Percent injury on wheat, Jagger 7 DAT", "setting": "[1]; carfentrazone-ethyl 25 g ai/ha", "result": 34, "unit": "%"}, {"measurement": "Percent injury on wheat, Jagger 14 DAT", "setting": "[1]; carfentrazone-ethyl 25 g ai/ha", "result": 25, "unit": "%"}, {"measurement": "Percent injury on wheat, Jagger 3 DAT", "setting": "[1]; carfentrazone-ethyl 50 g ai/ha", "result": 43, "unit": "%"}, {"measurement": "Percent injury on wheat, Jagger 7 DAT", "setting": "[1]; carfentrazone-ethyl 50 g ai/ha", "result": 38, "unit": "%"}, {"measurement": "Percent injury on wheat, Jagger 14 DAT", "setting": "[1]; carfentrazone-ethyl 50 g ai/ha", "result": 30, "unit": "%"}, {"measurement": "Percent wheat injury 3 DAT", "setting": "[2]; Table 2, carfentrazone-ethyl 25 g ai/ha, 3 DAT", "result": "34% and 34 (A) %"}, {"measurement": "Percent wheat injury 3 DAT", "setting": "[2]; Table 2, carfentrazone-ethyl 25 g ai/ha, 3 DAT, listed as carfentrazone-ethyl", "result": 34, "unit": "%"}, {"measurement": "Percent wheat injury 7 DAT", "setting": "[2]; [8]", "result": "28 (A) %"}, {"measurement": "Percent wheat injury 14 DAT", "setting": "[2]; [8]", "result": "15 (A) %"}, {"measurement": "Percent wheat injury 3 DAT", "setting": "[2]; Table 3, carfentrazone-ethyl 50 g ai/ha, 3 DAT", "result": "43% and 43 (A) %"}, {"measurement": "Percent wheat injury 7 DAT", "setting": "[2]; [9]", "result": "36 (A) %"}, {"measurement": "Percent wheat injury 14 DAT", "setting": "[2]; [9]", "result": "20 (A) %"}, {"measurement": "Injury", "setting": "[2]; carfentrazone-ethyl at 25 g", "result": "> 35", "unit": "%"}, {"measurement": "Injury", "setting": "[2]; [7]", "result": "> 40", "unit": "%"}, {"measurement": "Percent injury on wheat, Yellowstone 3 DAT", "setting": "[2]; carfentrazone-ethyl 25 g ai/ha, 3 DAT", "result": 38, "unit": "%"}, {"measurement": "Percent injury on wheat, Yellowstone 7 DAT", "setting": "[2]; carfentrazone-ethyl 25 g ai/ha", "result": 34, "unit": "%"}, {"measurement": "Percent injury on wheat, Yellowstone 14 DAT", "setting": "[2]; carfentrazone-ethyl 25 g ai/ha", "result": 24, "unit": "%"}, {"measurement": "Percent injury on wheat, Yellowstone 3 DAT", "setting": "[2]; carfentrazone-ethyl 50 g ai/ha, 3 DAT", "result": 44, "unit": "%"}, {"measurement": "Percent injury on wheat, Yellowstone 7 DAT", "setting": "[2]; carfentrazone-ethyl 50 g ai/ha", "result": 39, "unit": "%"}, {"measurement": "Percent injury on wheat, Yellowstone 14 DAT", "setting": "[2]; carfentrazone-ethyl 50 g ai/ha", "result": 28, "unit": "%"}, {"measurement": "Percent weed control, Morningglory 3 DAT", "setting": "[3]; carfentrazone-ethyl 25 g ai/ha", "result": "90 (A) %"}, {"measurement": "Percent weed control, Morningglory 7 DAT", "setting": "[3]; carfentrazone-ethyl 25 g ai/ha", "result": "100 (A) %"}, {"measurement": "Percent weed control, Morningglory 3 DAT", "setting": "[3]; carfentrazone-ethyl 50 g ai/ha", "result": "90 (A) %"}, {"measurement": "Percent weed control, Morningglory 7 DAT", "setting": "[3]; carfentrazone-ethyl 50 g ai/ha", "result": "100 (A) %"}, {"measurement": "Percent weed control, Velvetleaf 3 DAT", "setting": "[4]; carfentrazone-ethyl 25 g ai/ha", "result": "90 (A) %"}, {"measurement": "Percent weed control, Velvetleaf 7 DAT", "setting": "[4]; carfentrazone-ethyl 25 g ai/ha", "result": 100, "unit": "%"}, {"measurement": "Percent weed control, Velvetleaf 3 DAT", "setting": "[4]; carfentrazone-ethyl 50 g ai/ha", "result": "90 (A) %"}, {"measurement": "Percent weed control, Velvetleaf 7 DAT", "setting": "[4]; carfentrazone-ethyl 50 g ai/ha", "result": 100, "unit": "%"}]}]}
